Common to all, as to assay type: cell-based, human
Test [1] concerns hmNPCs. Kind of test: Dopaminergic differentiation: TH protein expression by Western blot. The conditions noted are these: pre-treatment with 100 µM antagonist; UTP 1 µM in expansion, 100 µM in differentiation. In general terms: In western blotting, separated proteins are transferred to a membrane and probed.
The subject of test [2] is hmNPCs. In words: Western blot of proliferation marker PCNA and survival marker Bcl-2. The conditions noted are these: 100 µM antagonist, 2 times during the 2 weeks proliferation period, before 1 µM UTP. The protocol: To determine long-term proliferation, hmNPCs were plated and expanded for 2 passages with or without addition of various agents (see below) to the custom expansion media containing the growth factors EGF and FGF2. Different fetal midbrain tissues were included in this study. At the end of the proliferation period, differentiation of hmNPCs was induced via replacement of expansion media with mitogen-free media containing 1% FCS, 5 µM forskoline (Sigma-Aldrich Chemie GmbH Munich, Germany), and 100 pg/ml IL-1β (Sigma). The differentiation and expansion media were supplemented with different drugs as appropriate. Prior to immunocytochemistry or protein extraction, hmNPCs were allowed to differentiate for 1 week. To determine short-term proliferation via Ki67 immunostaining, the cells were seeded into 24-well plates (70,000 cells/well) and left overnight to rest. P2 receptor agonists (ATP, UTP, ATP + UTP, ADP, ADPβS) were supplied daily for 5 consecutive days. Ki67/nestin double-positive cells were counted in 8 randomly selected fields of nucleotide-treated or untreated samples. For the assessment of MAPK phosphorylation the cells were kept free of mitogens for 2 d prior to addition of the MEK-inhibitor in expansion media. In addition, the MEK-inhibitor was added during the differentiation period 15 min before UTP administration.
In order to prepare protein extracts, hmNPCs were collected, washed with ice-cold PBS and lysed in buffer [10 mM HEPES-KOH (pH 7.9), 10 mM KCI, 1.5 mM MgCl2, 0.1% NP-40], supplemented with protease inhibitor cocktail (Roche). After a brief centrifugation at 4°C/10 000×g, protein concentrations and protein yield from extracts were determined using the Bradford method (Bio-Rad, Hercules, CA, USA). To preserve the phosphorylation state of proteins, extracts for the MAPK experiment were obtained using the PhosphoSafe™ extraction reagent containing phophatase inhibitors (Novagen). […] The chemiluminescence was quantified using the AIDA, two-dimensional densitometry software (Raytest lsotopenmeb, Straubenhardt, Germany). […]

In test [3] the test system is hmNPCs. In words: Cell death / cell cycle assay (propidium iodide, FACS). As to conditions: 30 minutes pretreatment; 10 µM suramin or 100 µM PPADS. The protocol:
Untreated (control) and treated exponentially growing […] were prepared for cell cycle analysis by lysing cells in 300 μl of hypotonic lysis buffer (0.1% sodium citrate, 0.1% Triton X-100, and 50 μg/ml propidium iodide [PI]). […] Histograms of DNA content were acquired using the CellQuest software. […] For data analysis and correction of the background, noise histograms were processed with the ModFit LT software (Verity, Turramurra, Australia).

The structures appear in SMILES notation.

`Cc1nc(N=Nc2ccc(S(=O)(=O)O)cc2S(=O)(=O)O)c(COP(=O)(O)O)c(C=O)c1O` [PPADS, Pyridoxal-phosphate-6-azophenyl-2',4'-disulphonic acid]: the “TH expression increase by UTP, antagonist pre-treatment” value in the test with hmNPCs [1] is given as “completely blocked”. For the same molecule, the “PCNA expression, antagonist before UTP” value in the test with hmNPCs [2] is recorded as “reduced the PCNA expression to control levels”. In the test on hmNPCs [3], the “block of the anti-proliferative effects of ATP, ADP and ADPβS” value was “failed to block”.

Source of the values: EP1897937A1, “Method of culturing NPCs” (NeuroProgen GmbH Leipzig, priority 2006, dated 2008).
